Source: patent US20250115582A1, “MOLECULAR GLUE DEGRADERS AND METHODS OF USING THE SAME” (Monte Rosa Therapeutics, Inc., priority 2022, published 2025)

Key:
[1] = molecular target: T1, CK1α (Homo sapiens, UniProt P48729+Q96SW2); experiment: CK1α NanoBiT assay (HiBiT-tagged CSNK1A1 in HEK293 clonal line); assay type: cell-based; conditions: HEK293 HiBiT-CSNK1A1/LgBiT cells, 24 h incubation, luminescence
T1 construct: HEK293 clonal line with CRISPR KI HiBiT tag on CSNK1A1; host or cells: HEK293 clonal line, CRISPR HiBiT knock-in at CSNK1A1, stably expressing LgBiT
T1 sequence (P48729 whole entry): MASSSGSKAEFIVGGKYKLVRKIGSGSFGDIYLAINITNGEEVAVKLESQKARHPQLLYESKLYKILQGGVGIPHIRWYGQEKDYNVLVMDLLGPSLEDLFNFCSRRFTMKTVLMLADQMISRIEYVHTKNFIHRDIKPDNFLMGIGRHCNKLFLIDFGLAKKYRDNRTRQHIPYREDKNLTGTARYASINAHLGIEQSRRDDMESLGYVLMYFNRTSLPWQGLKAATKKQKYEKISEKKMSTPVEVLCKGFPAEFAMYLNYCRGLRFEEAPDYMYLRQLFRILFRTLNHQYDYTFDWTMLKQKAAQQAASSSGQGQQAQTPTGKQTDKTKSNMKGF
T1 sequence (Q96SW2 whole entry): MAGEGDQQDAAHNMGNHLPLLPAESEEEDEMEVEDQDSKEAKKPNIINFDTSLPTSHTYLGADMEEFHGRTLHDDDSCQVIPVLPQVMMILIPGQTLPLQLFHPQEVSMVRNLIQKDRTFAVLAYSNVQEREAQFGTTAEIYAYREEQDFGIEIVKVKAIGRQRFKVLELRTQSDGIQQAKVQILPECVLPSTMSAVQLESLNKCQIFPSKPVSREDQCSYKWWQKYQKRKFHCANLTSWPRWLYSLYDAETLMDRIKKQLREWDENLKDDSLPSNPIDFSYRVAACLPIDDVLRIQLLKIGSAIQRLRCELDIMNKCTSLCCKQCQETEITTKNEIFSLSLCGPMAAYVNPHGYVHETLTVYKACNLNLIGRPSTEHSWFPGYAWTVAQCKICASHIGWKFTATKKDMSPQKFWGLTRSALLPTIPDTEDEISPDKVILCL
T1 sequence (Q16531 2-1140 partner limits assumed): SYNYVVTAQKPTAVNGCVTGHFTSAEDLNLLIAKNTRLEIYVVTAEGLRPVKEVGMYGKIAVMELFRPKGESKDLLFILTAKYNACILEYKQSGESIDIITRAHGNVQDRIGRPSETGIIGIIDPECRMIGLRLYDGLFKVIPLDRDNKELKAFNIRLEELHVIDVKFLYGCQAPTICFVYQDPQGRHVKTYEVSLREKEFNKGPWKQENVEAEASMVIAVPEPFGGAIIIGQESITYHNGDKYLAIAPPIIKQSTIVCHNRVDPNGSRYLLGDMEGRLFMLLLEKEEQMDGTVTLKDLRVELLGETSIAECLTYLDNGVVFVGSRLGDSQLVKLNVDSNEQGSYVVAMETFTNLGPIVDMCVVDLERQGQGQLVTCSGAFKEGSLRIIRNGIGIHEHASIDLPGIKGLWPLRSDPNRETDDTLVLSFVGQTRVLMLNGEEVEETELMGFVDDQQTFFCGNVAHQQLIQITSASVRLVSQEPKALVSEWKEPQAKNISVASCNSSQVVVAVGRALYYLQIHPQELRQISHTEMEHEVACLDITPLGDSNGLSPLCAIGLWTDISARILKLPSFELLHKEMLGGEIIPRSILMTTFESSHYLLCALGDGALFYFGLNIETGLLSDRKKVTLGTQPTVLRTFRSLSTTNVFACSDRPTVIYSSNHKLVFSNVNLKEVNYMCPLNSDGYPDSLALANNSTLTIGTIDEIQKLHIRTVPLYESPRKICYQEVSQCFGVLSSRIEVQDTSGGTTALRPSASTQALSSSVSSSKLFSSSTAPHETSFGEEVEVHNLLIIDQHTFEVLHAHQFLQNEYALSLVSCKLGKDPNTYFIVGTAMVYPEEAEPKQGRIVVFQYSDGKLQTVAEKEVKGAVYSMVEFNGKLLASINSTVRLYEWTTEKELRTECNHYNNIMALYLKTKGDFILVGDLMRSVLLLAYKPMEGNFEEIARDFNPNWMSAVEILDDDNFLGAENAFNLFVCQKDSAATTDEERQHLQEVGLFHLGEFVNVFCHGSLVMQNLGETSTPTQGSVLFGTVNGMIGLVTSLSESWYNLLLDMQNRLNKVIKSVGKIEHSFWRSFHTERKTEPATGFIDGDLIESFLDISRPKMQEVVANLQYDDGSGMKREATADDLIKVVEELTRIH
In short: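 HiBiT knock-in CSNK1A1 HEK293 cells stably expressing LgBiT were plated at 5000 cells/well in DMEM/10% FBS with 0.2% Endurazine live-cell substrate and pre-incubated 16 h. Compound was added to a final […] for 24 h at 37 °C before the luminescence read. Signal was normalised to plate controls, and DC50 came from a 3-parameter logistic fit (hillslope 1).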

[2] = molecular target: T2, CK1a (Homo sapiens, UniProt P48729+Q96SW2); experiment: Western blot assay of CK1a levels in HEK293 and HEK293 CRBN knock-out cells; assay type: cell-based; conditions: 0.1, 1, 10 μM, 24 hours
T2 construct: host or cells: HEK293 and HEK293 CRBN knock-out clone B2 (generated internally)
T2 sequence (P48729 whole entry): as the sequence (P48729 whole entry) above
T2 sequence (Q96SW2 whole entry): as the sequence (Q96SW2 whole entry) above
T2 sequence (Q16531 2-1140 partner limits assumed): as the sequence (Q16531 2-1140 partner limits assumed) above
Experimental: FIG. 1 depicts effects of Compound 147 on CK1a levels in an HEK293 cell line in comparison to effects of Compound 147 on CK1a levels in a cereblon (CRBN) knock-out HEK293 cell line.
HEK293 cell line was purchased from ATCC (CRL-1573). HEK293 CRBN knock out (k/o) cell line (B2) was generated internally using CRISPR/Cas9 method and clonally expanded. Cells were plated at 2×10^5 cells per well in 6-well tissue culture plates (VWR) in 2 ml of DMEM media (Gibco) containing 10% FBS (Gibco), and incubated for 16 hours at 37° C., 5% CO2. Compounds were added to final concentration of 0.1 μM, 1 μM, 10 μM (DMSO concentration was kept constant at 0.1%), following incubation at 37° C., 5% CO2 for additional 24 hours. Cell lysis was performed using RIPA buffer (Pierce) containing Halt™ Protease Inhibitor Cocktail (ThermoFisher Scientific). Lysates were boiled at 95° C. for 10 minutes and 12 μg of protein lysate per sample was resolved by SDS-PAGE using 12% gels (BioRad) and transferred to nitrocellulose membrane (BioRad). Membranes were blocked using LI-COR blocking buffer (LI-COR) at room temperature for 1 hour, followed by overnight incubation with rabbit anti-CK1a (Abcam ab206652), rabbit anti-CRBN (Sigma HPA045910) and mouse anti-α-tubulin (Sigma T9026) antibodies at 4° C. […]

[3] = Mouse oral PK at 10 mg/kg; assay type: in vivo; conditions: male BALB/c mice, PO 10 mg/kg, plasma
Experimental: Male BALB/c mice were fasted overnight and administered a discrete, PO dose of Compound 154 or Compound 147 at 10 mg/kg.
Blood samples were collected serially from three animals/time-point following PO administration of the test compounds to the mice and placed in tubes containing K2EDTA. The blood samples were centrifuged, and the aliquots of the resulting plasma stored frozen at −60 to −90° C.
The plasma samples were analyzed by LC-MS/MS to determine concentrations of the test compounds. The in-life portion of the study and the bioanalysis of plasma samples was conducted at Wuxi (China).
The pharmacokinetic parameters for compound 154 or compound 147 were calculated by non-compartmental analysis using Phoenix WinNonlin software.

DC50 [1] [µM]	CK1a levels in cereblon (CRBN) knock-out HEK293 cell line (Western blot, FIG. 1) ([2]; HEK293 CRBN knock-out cell line)	CK1a levels in HEK293 cell line (Western blot, FIG. 1) ([2]; HEK293 cell line, cereblon present)	Tmax [3] [h]	AUC ([3]; Mean ± SD) [ng·h/mL]	AUC(0-t) ([3]; Mean ± SD) [ng·h/mL]	Cmax ([3]; Mean ± SD) [ng/mL]	half-life ([3]; Mean ± SD) [h]	Structure (SMILES)
< 0.1	no effect on CK1a levels	decreases CK1a levels	0.5	1210 ± 235	1170 ± 258	574 ± 76.8		O=C1CCC(N2Cc3cc(NC(=O)c4ccc(Cl)cc4)ccc3C2=O)C(=O)N1 (stereo not shown) [Compound 147]
< 0.1			1	50900 ± 10400	50900 ± 10300	12900 ± 2560	2.19 ± 0.24	O=C1CCC(N2Cc3cc(NC(=O)c4ncn(-c5ccccc5)c4C(F)(F)F)ccc3C2=O)C(=O)N1 (stereo not shown) [Compound 154, N-(2-(2,6-dioxopiperidin-3-yl)-1-oxoisoindolin-5-yl)-1-phenyl-5-(trifluoromethyl)-1H-imidazole-4-carboxamide]
